Data set [1] has as its system CHO-K1 cells. The data set is described as follows: FACS cellular uptake of Cy3-labeled GAPDH siRNA. The note with it: Cy3-labeled GAPDH siRNA 100 nM, 4 h. The format is cell-based, Chinese hamster. How it is done:
The uptake of Cy3-labeled siRNA into the CHO-K1 cells was quantified with a BD FACSVantage SE Cell Sorter flow cytometry (BD Biosciences, United States). CHO-K1 cells were plated at a density of 50,000 cells per well and incubated for 24 h in a 24-well flat-bottom plate. The medium was replaced with GL1-siRNA complexes and control samples in OPTI-MEM (Invitrogen) or F12-K supplemented with 10% FBS with a siRNA concentration of 100 nM. After 4 h of incubation, the cells were rinsed with phosphate buffered saline (PBS) and washed with heparin (10 U/ml). After, trypsin–EDTA was added to detach the cells from the plate. The cells were re-suspended in 4% paraformaldehyde (PFA) and ready for quantitative analysis.
Figure 5 a Fluorescence microscope image of GL1-siRNA complexes at molar ratio 40/1 (magnification 40×). The red fluorescence indicated Cy3 labeled siRNA, blue fluorescence represented DAPI stained nuclei. […] Non-treated sample was negative control; Lipo-siRNA complexes were positive control. Cy3 labeled GAPDH siRNA was used here. siRNA concentration was 100 nM in both experiments. NT non-treated, MR peptide/siRNA molar ratio, Lipo Lipofectamine 2000. Results are expressed as mean ± standard deviation (n = 3).

Data set [2] concerns CHO-K1 cells. The data set is described as follows: MTT cytotoxicity assay. The format is cell-based, Chinese hamster. Particulars: siRNA 50 nM, 4 h Opti-MEM then 48 h, molar ratio 10/1. How it is done:
The cytotoxicity of peptide-siRNA complexes was determined by the MTT assay. In brief, cells were seeded at 5,000 cells/well in clear, flat-bottomed, 96-well plates (Costar) 24 h before treatment. After being washed, 100 μl of Opti-MEM that contained peptide-siRNA complexes at different molar ratios was added to the wells and incubated for 4 h. Thereafter, 50 μl of 30% serum containing medium was added, and the cytotoxicity of the relevant reagents was determined by the MTT assay after 48 h. The absorbance at 570 nm was read on a plate reader (FLUOstar OPTIMA, BMG, Germany). The background absorbance of the multiwell plates at 690 nm was determined and subtracted from the 570 nm measurement. The results obtained from triplicate wells were averaged and normalized to the value obtained from the non-treated cells.
Figure 7 Cell viability results of CHO-K1 cells treated with naked Lipofectamine 2000 or GL1, and the complexes with siRNA (50 nM) at different molar ratios. NT non-treated, MR peptide/siRNA molar ratio, Lipo Lipofectamine 2000. Results are expressed as mean ± standard deviation (n = 3). *P value < 0.05, the cell viability after GL1 treatment is statistically significant than that after Lipo treatment.

In data set [3] the test system is siRNA. The data set is described as follows: Isothermal titration calorimetry, titrating siRNA with GL1. It is filed as binding. The method, then: The isothermal titration calorimetry experiments were conducted using a Nano-ITC calorimeter (TA Instruments). A 500 μM GL1 peptide solution and a 10 μM siRNA solution were both prepared in RNase-free water. All of the samples were degassed in a degassing station (TA Instruments) prior to the experiments. RNase-free water was placed in the ITC reference cell. For each titration, 2 μl of the peptide in a pipette rotating at 250 rpm was injected into the siRNA solution in the sample cell of the calorimeter, which was equilibrated to 25°C, with an interval of 300 s between injections. The heat of dilution was measured by titrating the GL1 solution into RNase-free water and was later subtracted from the sample measurement. The data were analyzed using NanoAnalyze software v.3.1.2.
The ability of GL1 to interact with siRNA was investigated by gel electrophoresis. Binding between peptide and siRNA prevented RNA from being stained by EtBr. […] At a slightly higher molar ratio 15/1, no free siNRA was detected on the agarose gel. […] This direct binding between cationic peptide and anionic siRNA would be initiated via electrostatic interactions. The formation of GL1-siRNA complexes and the thermodynamic parameters associated with the binding between peptide and siRNA was further investigated using isothermal titration calorimetry by titrating the siRNA with GL1. The heat exchange during the titration of siRNA by GL1 (in RNase-free water) was detected by the machine and output as raw data. By fitting the raw data (upper panel of Figure 2) to a single-site model (lower panel of Figure 2), the thermodynamic parameters during the interaction were obtained and listed in Table 1.
Figure 2 Calorimetric titration of siRNA with GL1 at 25°C in RNasefree water at pH 6. a Corrected thermogram of calorimetric titration of siRNA with GL1. b Binding analysis of siRNA with GL1 by fitting the raw data with an independent model. GL1 concentration was 500 μM and siRNA concentration was 10 μM.

The subject of another data set is eGFP siRNA. The data set is described as follows: Agarose gel-shift assay of peptide-siRNA complex formation. The format is binding. Particulars: 1.2% agarose gel, 300 ng eGFP siRNA. The method, then:
The GL1-siRNA complexes in RNase-free water were made with 300 ng of eGFP siRNA. The samples of siRNA alone and GL1-siRNA complexes at molar ratios (peptide/siRNA) ranging from 1/1 to 80/1 were electrophoresed on a 1.2% wt/vol agarose gel in 1× TBE at 55 V for 1 h. The ethidium bromide-stained siRNA was visualized on an ultraviolet transilluminator with a camera.
Figure 1 Binding ability of siRNA to GL1 studied by agarose gel-shift assay The formed GL1-siRNA complexes, stained with ethidium bromide, were investigated by electrophoresis on agarose gel (1.2% wt/vol). siRNAs, targeting eGFP genes, were complexed with GL1 at a series of molar ratios from 1/1 to 80/1. Lane 1 was siRNA control, and lanes 2–8 indicated correlated molar ratios. The amount of siRNA was 300 ng.

Data set [4] relates to siRNA. Particulars: cited from earlier work. The source says: Here, an amphipathic, cationic peptide GL1 was designed and investigated. Structurally, GL1 has dispersed cationic amino acids along the sequence, which differs from the arginine rich peptide R9, R9-hLF, and Tat. The peptide MPG and MPG-like peptides consist of a hydrophobic domain and a hydrophilic domain which contributes to their amphipathic property; while PF6 and PF14 incorporated a stearyl moiety in their sequences to improve amphiphilicity. However, peptide GL1 has hydrophilic and hydrophobic amino acids dispersed along the sequence, which leads to its amphipathicity ...

In the next data set the target is T1, GL1 peptide (synthetic (designed)).
T1 chain: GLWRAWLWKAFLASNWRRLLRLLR
The data set is described as follows: EMSA (agarose gel shift, EtBr); peptide/siRNA molar ratios 1/1 to 80/1; no free siRNA at 15/1, strongly reduced at 10/1; 300 ng siRNA; ITC: RNase-free water, pH 6, 25 C, 500 uM GL1 into 10 uM siRNA; gel shift: 1.2% agarose, EtBr, 20 min incubation, buffer not given. The note with it: tags: N-terminal acetyl, C-terminal amide.

Setting [5] is: ITC, 500 μM GL1 titrated into 10 μM siRNA, RNase-free water pH 6, 25°C.

In the case of Ac-GLWRAWLWKAFLASNWRRLLRLLR-NH2 [GL1], the “cellular uptake of siRNA” value is reported as 75% in the data set on CHO-K1 cells [1] (F12-K with 10% FBS, molar ratio 20/1, mean n = 3); 84% in the data set with CHO-K1 cells [1] (F12-K with 10% FBS, molar ratio 40/1, mean n = 3); 95% in the data set on CHO-K1 cells [1] (OPTI-MEM without serum, molar ratio 20/1, mean n = 3); 95% in the data set with CHO-K1 cells [1] (OPTI-MEM without serum, molar ratio 40/1, mean n = 3); ~ 84% with CHO-K1 cells [1] (in the presence of serum, molar ratio not stated at the place, mean n = 3); ~ 95% with CHO-K1 cells [1] (serum free, molar ratio not stated at the place, mean n = 3). In addition, the toxicity entry in the data set on CHO-K1 cells [2] is “did not cause toxicity”. Further, the “n (molar stoichiometry, mol GL1 per mol siRNA)” value in the data set on siRNA [3] (setting [5]) was 7.16. The “ΔH (enthalpy)” value in the data set with siRNA [3] (setting [5]) was -4.472 kcal/mol. For the same molecule, the ΔS in the data set on siRNA [3] (setting [5]) is listed as 64.56 J/(mol K). At siRNA [3] (ITC, 500 μM GL1 titrated into 10 μM siRNA, RNase-free water pH 6, 25°C, read-out: Kd (dissociation constant)), the equilibrium dissociation constant (Kd) was 224 nM. In the data set with siRNA [3] (calculated with ΔG = ΔH − TΔS, ITC at 25°C), the ΔG is -9.068 kcal/mol. In addition, the “minimal peptide/siRNA molar ratio for siRNA delivery / complex formation” value in the data set with eGFP siRNA is given as “around 10/1”. The “peptide/siRNA molar ratio at which no free siRNA is detected (all free siRNA encapsulated)” value in the data set on eGFP siRNA (ethidium bromide, molar ratios 1/1 to 80/1) is 15/1.
As to TP10, in the data set on siRNA [4], the “molar ratio required to encapsulate all the free siRNA” value is on record as 50/1.

B1: eGFP siRNA (dsRNA)
RNA 1: GACGUAAACGGCCACAAGUUC
RNA 2: ACUUGUGGCCGUUUACGUCGC
As for B1, in the data set with GL1 peptide, the binding result is listed as “binds”.
